Measurements reported in patent US9056923B2, “Mimetic peptides derived from collagen type IV and their use for treating angiogenesis- and lymphagiogenesis-dependent diseases” (THE JOHNS HOPKINS UNIVERSITY, priority 2010, dated 2015).
Square brackets hold non-standard residues; d marks the D form. Ends that are not written are not given here. Peptide text beside a SMILES is read from it. Phe(4-Cl) = N[C@@H](Cc1ccc(Cl)cc1)C(=O)O; Nle = CCCC[C@H](N)C(=O)O; Abu = CC[C@H](N)C(=O)O

Columns and labels:
Format in all cases: cell-based, human
[1] = system: HUVEC; experiment: HUVEC migration assay (RT-CIM); settings: for Activity in Migration: Yes/No summary, active = inhibitory potential greater than 30%; for Migration Inhibition (50 uM): 50 uM peptide
Protocol: The inhibitory potential of the peptides was measured using a real time migration assay system based on electrical impedance (RT-CIM, ACEA Biosciences, CA). CIM 16 well plates (Roche, 05665817001) are composed of a top and bottom chamber separated by a microporous (8 μm) polycarbonate membrane. The membrane was coated with fibronectin (20 μg/mL), and 45,000 cells/well in serum free media with or without peptides were added to the top compartment. Media with chemoattractant (i.e., fully supplemented EBM-2) was added to the bottom compartment of the chamber and the plate was incubated at 37° C. for 20 hours. The sensors integrated on the bottom side of the membrane monitor and continuously record changes in impedance as the cells move through the membrane. The RT-CIM technology allows for easy quantification of cell migration by monitoring the cell index derived from the measured impedances. Assays were performed in at least two independent replicates and each replicate was performed using two experimental duplicates.

[2] = system: HUVEC; experiment: HUVEC tube formation assay on Matrigel; settings: for Tube formation Inhibition (100 uM): 100 uM peptide; for Activity in Tube formation: Yes/No summary; for inhibition of tube formation: concentration not given
Protocol: The compounds also were tested for their ability to inhibit tube formation, a process critical in angiogenesis. Endothelial cells spontaneously form a network of tubes when plated on extracts of extracellular matrix. This in vitro assay combines aspects of adhesion and migration and it is routinely used in angiogenesis research (Oliveira-Ferrer et al., 2008). The ability to inhibit tube formation is a comprehensive assessment of the anti-angiogenic potential. The protocol was described by Arnaoutova et al. (2009) and it consists of plating HUVEC on top of basement membrane extract and after incubation at 37° C. the cells naturally rearrange themselves in a network of tubes. Thus, 50 μL/well of Matrigel (BD Biosciences, San Jose, Calif.) was plated in a cold 96 well plate and incubated at 37° C. for 30 min for polymerization. 15,000 cells/well were added to the top of the gel and incubated in complete media in the presence or absence of peptide for 19 hours. Images were captured using the CCD Sensicam mounted on a Nikon microscope (Eclipse T-100). Assays were performed in at least two independent replicates and each replicate was performed using three experimental replicates and one image of a randomly chosen field was acquired per well.

[3] = system: HUVEC; settings: for Activity in Proliferation: Yes/No summary
Protocol: Several assays were used to test the peptides discussed in the Examples herein. A colorimetric based proliferation assay using WST-1 (Roche, 11644807001) proliferation reagent was carried out using HUVEC cells. 2000 cells/well were plated in 96-well plates and allowed to adhere overnight. On the following day, the media was exchanged with fully supplemented media containing peptides or equivalent DMSO vehicle for the controls. Three days later the media containing the peptides was replaced with serum-free EBM-2 media containing WST-1 reagent and the plates were incubated for four hours as per the manufacturer's recommendations. Changes in color, due to the formazan dye resulted from the cleavage of the tetrazolium salt WST-1 by the mitochondrial succinate-tetrazolium reductase, were read on a Victor V fluorescence plate reader (Perkin Elmer, MA) by measuring the absorbance at 450 nm Dose response curves of percent live cells (in comparison to untreated cells but incubated in complete media with 0.2% DMSO) were created. Assays were performed in at least two independent replicates and each replicate was performed using three experimental triplicates.

[4] = system: HUVEC; settings: HUVEC; for Activity in Adhesion: Yes/No summary, active = inhibitory potential greater than 30%; for Adhesion Inhibition (100 uM): 100 uM peptide
Protocol: Similar to the migration assays, the inhibition activity of the peptide in cellular adhesion was assessed using the RT-CIM technology. In this case, 25,000 cells/well were plated in 16 wells E-plates (Roche, Basel Switzerland) in the presence or absence of the peptide. The adhesion was monitored over time (3 hours) by measuring changes in the electrical impedance, which is a direct measure of the cells adhering on the electrodes. […] Assays were performed in at least two independent replicates and each replicate was performed using two experimental duplicates.

With CC[C@H](NC(=O)[C@H](Cc1ccccc1)NC(=O)[C@H](CCSC)NC(=O)[C@H](Cc1ccccc1)NC(=O)[C@@H]1CCCN1C(=O)[C@H](CCSC)NC(=O)[C@@H](NC(=O)[C@H](CO)NC(=O)[C@H](Cc1ccccc1)NC(=O)[C@H](CCCNC(=N)N)NC(=O)[C@H](CCCNC(=N)N)NC(=O)[C@@H](N)CC(C)C)[C@@H](C)O)C(=O)N[C@@H](CC(N)=O)C(=O)N[C@H](C(=O)N[C@@H](CC(N)=O)C(=O)N[C@H](C(=O)O)C(C)C)[C@@H](C)CC [SP2006, LRRFSTMPFMFAbuNINV] (H-LRRFSTMPFMF[Abu]NINV-OH; N-terminus and C-terminus assumed) the “Activity in Migration” value [1] was “No”, the “migration inhibition” value ([1]; concentration not given) was 18% and the “Tube formation Inhibition (100 uM)” value [2] was “Complete”. For the same compound, the “Activity in Tube formation” value [2] was “Yes”, the “inhibition of tube formation” value [2] was “Inhibition of tube formation” and the “inhibition of tube formation (FIG. 20)” value ([2]; high dose, 100 nM) was “active at inhibiting tube formation”. The “inhibition of proliferation” value ([3]; HUVEC) was “did not inhibit proliferation”, the “Activity in Proliferation” value ([3]; HUVEC) was “No” and the “inhibition of adhesion at 50 μM” value ([4]; 50 μM peptide) was “inhibition of adhesion”. For the same compound, the “Activity in Adhesion” value [4] was “Yes”.
For CC[C@H](NC(=O)[C@H](Cc1ccccc1)NC(=O)[C@H](CCSC)NC(=O)[C@H](Cc1ccccc1)NC(=O)[C@@H]1CCCN1C(=O)[C@H](CCSC)NC(=O)[C@@H](NC(=O)[C@H](CO)NC(=O)[C@H](Cc1ccccc1)NC(=O)[C@H](CCCNC(=N)N)NC(=O)[C@H](CCCNC(=N)N)NC(=O)[C@@H](N)CC(C)C)[C@@H](C)O)C(N)=O [SP2007, LRRFSTMPFMFAbu] (H-LRRFSTMPFMF[Abu]-NH2; N-terminus assumed), the “Migration Inhibition (50 uM)” value [1] was “Inactive”, the “Activity in Migration” value [1] was “No” and the “inhibition of migration” value ([1]; concentration not given) was “absence of activity”. For the same compound, the “Tube formation Inhibition (100 uM)” value [2] was “Inactive”, the “Activity in Tube formation” value [2] was “No” and the “Activity in Proliferation” value ([3]; HUVEC) was “No”. For the same compound, the “Proliferation Inhibition (IC50 in uM)” value ([3]; HUVEC, summary tables 2-4, 6, 7) was “Inactive”, the “Adhesion Inhibition (100 uM)” value [4] was 11% and the “Activity in Adhesion” value [4] was “No”. For the same compound, the “inhibition of adhesion” value ([4]; concentration not given) was “absence of activity”.
CC[C@H](NC(=O)[C@H](Cc1ccccc1)NC(=O)[C@H](CCSC)NC(=O)[C@H](C)NC(=O)[C@@H]1CCCN1C(=O)[C@H](CCSC)NC(=O)[C@@H](NC(=O)[C@H](CO)NC(=O)[C@H](Cc1ccccc1)NC(=O)[C@H](CCCNC(=N)N)NC(=O)[C@H](CCCNC(=N)N)NC(=O)[C@@H](N)CC(C)C)[C@@H](C)O)C(=O)N[C@@H](CC(N)=O)C(=O)N[C@H](C(=O)N[C@@H](CC(N)=O)C(=O)N[C@@H](CC(N)=O)C(=O)N[C@H](C(=O)N[C@@H](CC)C(=O)N[C@@H](CC(N)=O)C(=O)N[C@@H](Cc1ccccc1)C(N)=O)C(C)C)[C@@H](C)CC [SP2015, LRRFSTMPAMF(Abu)NINNV(Abu)NF] (H-LRRFSTMPAMF[Abu]NINNV[Abu]NF-NH2; N-terminus assumed) was tested, and the “Migration Inhibition (50 uM)” value [1] was 100%, the “Tube formation Inhibition (100 uM)” value [2] was “Complete” and the “inhibition of tube formation” value [2] was “significant inhibition of tube formation”. The “Adhesion Inhibition (100 uM)” value [4] was 96%.
In the case of CC[C@H](NC(=O)[C@H](Cc1ccccc1)NC(=O)[C@H](C)NC(=O)[C@H](Cc1ccccc1)NC(=O)[C@@H]1CCCN1C(=O)[C@H](CCSC)NC(=O)[C@@H](NC(=O)[C@H](CO)NC(=O)[C@H](Cc1ccccc1)NC(=O)[C@H](CCCNC(=N)N)NC(=O)[C@H](CCCNC(=N)N)NC(=O)[C@@H](N)CC(C)C)[C@@H](C)O)C(=O)N[C@@H](CC(N)=O)C(=O)N[C@H](C(=O)N[C@@H](CC(N)=O)C(=O)N[C@@H](CC(N)=O)C(=O)N[C@H](C(=O)N[C@@H](CC)C(=O)N[C@@H](CC(N)=O)C(=O)N[C@@H](Cc1ccccc1)C(N)=O)C(C)C)[C@@H](C)CC [SP2016, LRRFSTMPFAF(Abu)NINNV(Abu)NF] (H-LRRFSTMPFAF[Abu]NINNV[Abu]NF-NH2; N-terminus assumed), the “Migration Inhibition (50 uM)” value [1] is reported as 99.6% and the “Adhesion Inhibition (100 uM)” value [4] is reported as 96%.
For CC[C@H](NC(=O)[C@H](C)NC(=O)[C@H](CCSC)NC(=O)[C@H](Cc1ccccc1)NC(=O)[C@@H]1CCCN1C(=O)[C@H](CCSC)NC(=O)[C@@H](NC(=O)[C@H](CO)NC(=O)[C@H](Cc1ccccc1)NC(=O)[C@H](CCCNC(=N)N)NC(=O)[C@H](CCCNC(=N)N)NC(=O)[C@@H](N)CC(C)C)[C@@H](C)O)C(=O)N[C@@H](CC(N)=O)C(=O)N[C@H](C(=O)N[C@@H](CC(N)=O)C(=O)N[C@@H](CC(N)=O)C(=O)N[C@H](C(=O)N[C@@H](CC)C(=O)N[C@@H](CC(N)=O)C(=O)N[C@@H](Cc1ccccc1)C(N)=O)C(C)C)[C@@H](C)CC [SP2017, LRRFSTMPFMA(Abu)NINNV(Abu)NF] (H-LRRFSTMPFMA[Abu]NINNV[Abu]NF-NH2; N-terminus assumed), the “Migration Inhibition (50 uM)” value [1] was 100% and the “Adhesion Inhibition (100 uM)” value [4] was 95.5%%.
With CCCC[C@H](NC(=O)[C@H](Cc1ccccc1)NC(=O)[C@@H]1CCCN1C(=O)[C@H](CCSC)NC(=O)[C@@H](NC(=O)[C@H](CO)NC(=O)[C@H](Cc1ccccc1)NC(=O)[C@H](CCCNC(=N)N)NC(=O)[C@H](CCCNC(=N)N)NC(=O)[C@@H](N)CC(C)C)[C@@H](C)O)C(=O)N[C@@H](Cc1ccccc1)C(=O)N[C@@H](CC)C(=O)N[C@@H](CC(N)=O)C(=O)N[C@H](C(=O)N[C@@H](CC(N)=O)C(=O)N[C@@H](CC(N)=O)C(=O)N[C@H](C(=O)N[C@@H](CC)C(=O)N[C@@H](CC(N)=O)C(=O)N[C@@H](Cc1ccccc1)C(N)=O)C(C)C)[C@@H](C)CC [SP2018, LRRFSTMPF(Nle)F(Abu)NINNV(Abu)NF] (H-LRRFSTMPF[Nle]F[Abu]NINNV[Abu]NF-NH2; N-terminus assumed) the “Migration Inhibition (50 uM)” value [1] was 100% and the “Adhesion Inhibition (100 uM)” value [4] was 90.9%%.
CC[C@H](NC(=O)[C@H](Cc1ccc(Cl)cc1)NC(=O)[C@H](CCSC)NC(=O)[C@H](Cc1ccccc1)NC(=O)[C@@H]1CCCN1C(=O)[C@H](CCSC)NC(=O)[C@@H](NC(=O)[C@H](CO)NC(=O)[C@H](Cc1ccccc1)NC(=O)[C@H](CCCNC(=N)N)NC(=O)[C@H](CCCNC(=N)N)NC(=O)[C@@H](N)CC(C)C)[C@@H](C)O)C(=O)N[C@@H](CC(N)=O)C(=O)N[C@H](C(=O)N[C@@H](CC(N)=O)C(=O)N[C@@H](CC(N)=O)C(=O)N[C@H](C(=O)N[C@@H](CC)C(=O)N[C@@H](CC(N)=O)C(=O)N[C@@H](Cc1ccccc1)C(N)=O)C(C)C)[C@@H](C)CC [SP2019, LRRFSTMPFM(4-ClPhe)(Abu)NINNV(Abu)NF] (H-LRRFSTMPFM[Phe(4-Cl)][Abu]NINNV[Abu]NF-NH2; N-terminus assumed) was tested, and the “Migration Inhibition (50 uM)” value [1] was 98% and the “Adhesion Inhibition (100 uM)” value [4] was 95.9%.
With LRRFSTMPFMFGNINNVGNF-NH2 [SP2002] the “Migration Inhibition (50 uM)” value [1] was 87.9%, the “Tube formation Inhibition (100 uM)” value [2] was “Complete” and the IC50 [3] was 31.4 µM.
